Data published in US20250195415A1, “BIODEGRADABLE CONTROLLED RELEASE ANTIVIRAL AGENT IMPLANTS” (Yale University, priority 2022, published 2025).
Where two headings read alike, the source gives them in different places.

Experiments:
[1] = In vitro drug release from poly(EB-co-DO) implants with mathematical diffusion model; type: physicochemical; details: for Diffusion Coefficient: 28 % Loading, P4 (37k, 20% DO) implants
Method: Drug-loaded poly(EB-co-DO) implants (1 cm long, 2.4 mm diameter, 50 mg) were individually incubated in 1 mL of PBS solution (pH=7.4) containing 3% methyl-beta-cyclodextrin (M-β-CD) at 37° C. At selected time points, the buffer solution was completely replaced with fresh solution of the same composition. The collected buffer solutions, in which the implant had been continuously and completely bathed for a period of time, were flash frozen and lyophilized. High-performance liquid chromatography (HPLC) was then used to determine the representative drug loading of implants in each group.
The samples were then centrifuged at 3000 rpm for 5 min to draw out any salts and M-β-CD. The supernatant was passed through 0.22 um syringe filters before being analyzed by HPLC for drug content.
An Agilent column (883995-906, ZORBAX StableBond 300 C8, 4.6×150 mm, 5 μm) and Shimadzu HPLC system (LC-2030C) with a UV-Vis detector was used for drug quantitation. […] Initial solvent B concentration was set at 5% and allowed to increase to 100% by the 5th minute. Flow was maintained for 5 min at this level before dropping to 5% after 12 min, which was maintained until the end of the run at 13 minutes. For analysis of DTG drug release, Solvent A was 0.1% TFA in HPLC grade water, and solvent B was 100% methanol. Initial solvent B concentration was set at 55% and increased to 60% for the 6-7th minute before being brought back down to 55% for the 7-10th minute. All three drugs were detected using a UV detector at a wavelength of 240 nm. […] A volume of 45 μl was injected for each sample run.
Fick's second law of diffusion appropriately models drug transport across polymeric matrixes by proportionally relating the diffusion rate at time, t, to the concentration gradient of drug in the implant, ∂C/∂r. As shown in the equation below (1), a one-dimensional, radial release from our cylindrical implants was adopted, with a constant drug diffusion coefficient, D.
The solution for the above partial differential equation requires specification of a set of initial conditions and boundary conditions. For the initial condition (t=0), a homogenous and uniform concentration of drug throughout the implant was adopted, C=C0. A symmetry boundary condition is further applied at the center of the implant (r=0) as flux across the plane of symmetry is zero, ∂C/∂r=0. Lastly, a perfect-sink boundary condition is applied at the surface of implant (r=R), C=0. […] In vitro release, then, is determined from the mass of drug in the implant at each time point subtracted from initial mass of drug within the implant (Co*V). Lastly, the diffusion coefficient is determined by fitting the cumulative drug release profile to data from in vitro drug release experiments and minimizing root mean squared error (RMSE).

[2] = cited from earlier work
[3] = cited from earlier work; remark: listed apart in the source
[4] = biological target: T1, human mitochondrial DNA polymerase (Homo sapiens, UniProt P54098); details: previous studies; cited from earlier work
T1 sequence (P54098 1-1239): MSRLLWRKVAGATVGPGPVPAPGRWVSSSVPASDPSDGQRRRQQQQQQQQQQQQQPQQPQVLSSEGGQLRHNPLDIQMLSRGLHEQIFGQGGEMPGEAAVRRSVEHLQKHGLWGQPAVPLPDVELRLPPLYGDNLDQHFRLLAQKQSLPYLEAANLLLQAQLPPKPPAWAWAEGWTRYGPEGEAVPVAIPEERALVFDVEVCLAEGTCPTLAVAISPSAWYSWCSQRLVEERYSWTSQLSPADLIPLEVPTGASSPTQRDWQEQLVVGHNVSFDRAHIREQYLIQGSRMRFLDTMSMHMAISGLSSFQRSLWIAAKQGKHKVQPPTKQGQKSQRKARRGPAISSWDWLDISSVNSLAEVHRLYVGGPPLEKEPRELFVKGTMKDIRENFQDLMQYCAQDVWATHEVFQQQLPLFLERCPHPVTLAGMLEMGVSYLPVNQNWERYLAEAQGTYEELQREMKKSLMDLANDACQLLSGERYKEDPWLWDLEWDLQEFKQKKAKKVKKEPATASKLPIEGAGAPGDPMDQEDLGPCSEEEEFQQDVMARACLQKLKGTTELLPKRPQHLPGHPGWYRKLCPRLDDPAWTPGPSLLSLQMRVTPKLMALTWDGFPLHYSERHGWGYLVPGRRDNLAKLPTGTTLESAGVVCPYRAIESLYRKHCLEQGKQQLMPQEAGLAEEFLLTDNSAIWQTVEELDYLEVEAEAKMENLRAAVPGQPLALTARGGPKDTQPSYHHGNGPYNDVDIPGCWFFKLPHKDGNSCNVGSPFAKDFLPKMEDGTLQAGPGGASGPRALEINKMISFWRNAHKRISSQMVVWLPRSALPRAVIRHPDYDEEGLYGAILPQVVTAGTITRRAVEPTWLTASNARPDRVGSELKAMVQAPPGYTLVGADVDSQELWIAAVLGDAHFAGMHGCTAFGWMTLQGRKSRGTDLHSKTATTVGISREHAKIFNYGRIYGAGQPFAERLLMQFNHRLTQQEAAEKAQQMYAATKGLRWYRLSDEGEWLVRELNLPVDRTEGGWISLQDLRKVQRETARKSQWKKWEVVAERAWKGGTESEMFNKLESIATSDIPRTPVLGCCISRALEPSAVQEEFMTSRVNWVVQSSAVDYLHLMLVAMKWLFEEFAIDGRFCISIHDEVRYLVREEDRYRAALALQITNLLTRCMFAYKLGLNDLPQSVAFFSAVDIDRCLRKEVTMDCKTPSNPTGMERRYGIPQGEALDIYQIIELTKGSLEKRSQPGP

[5] = rodents; cited from earlier work
[6] = tested on: HIV-1; experiment: HIV cellular assays (HIV cell culture), antiviral potency
[7] = Pharmacokinetic studies for implants and NPs in Hu-PBL mice; type: in vivo; details: for concentration at 42 d / concentration at 56 d / AUC(0-t): NSG (NOD.Cg-Prkdcscid Il2rgtm1Wjl/SzJ), Hu-PBL, mouse; for concentration at 42 d / concentration at 56 d: plasma; for concentration at 42 d: intraperitoneal, day 42; for AUC(0-t): serum
Method: NOD.Cg-Prkdcscid Il2rgtm1 Wjl/SzJ (NSG) mice were purchased from the Jackson Laboratory (Bar Harbor, ME) and bred and maintained at Yale University (New Haven, CT) according to guidelines established by the Institutional Animal Committee. All experiments were performed according to protocols approved by the Institutional Review Board and the Institutional Animal Care and Use Committee of Yale University. NSG-Hu-PBL mice were engrafted. Briefly, 10×10^6 peripheral blood mononuclear cells (PBMC), purified by Ficoll density gradient centrifugation of healthy donor blood (obtained from the New York Blood Bank) were injected intraperitoneally in a 200 μl volume into 6- to 12-week-old NSG mice (Jackson Laboratory), using a 1 cm^3 syringe and 25-gauge needle. Mice were retro-orbitally bled to collect 70-100 μl of blood.
Two NSG mice were injected intraperitoneally (i.p.) with Compound I-NP (190 mg/kg) and EFdA (10 mg/kg) suspended in sterile saline solution. The blood samples were collected at predetermined time points from the ocular venous plexus by retro-orbital venipuncture and used for subsequent HPLC analysis.
Mice were anesthetized by intraperitoneal injection of ketamine (80 mg/kg) and xylazine (12 mg/kg) in PBS (10 ml/kg) based on individual mouse body weight. After anesthetizing, approximately 1-2 cm square of the dorsal skin was shaved using an electric hair clipper, the area was cleaned with ethanol and disinfected with betadine. Using a sterile disposable surgical blade, an incision of 4-5 mm was made through the skin. Gently, 2 cm×3 cm subcutaneous pockets were created with forceps and implants loaded with EFdA and Compound I were co-inserted at the same site. The opening was sutured using absorbable sutures followed by subcutaneous administration of 0.05 mg/kg buprenorphine. The animals were kept warm using the temperature-controlled heating pads until they regained consciousness. Toxicity was evaluated by clinical observations, eageside observations (twice daily), and body weight (at least weekly).
To determine dose-dependent serum agent concentrations, in vivo pharmacokinetics of Compound I and EFdA implants, and Compound I-NP and EFdA-NP were investigated in Hu-PBL mice. The blood samples were collected at predetermined time points from the ocular venous plexus by retro orbital venipuncture and serum was used for subsequent HPLC analysis.

[8] = tested on: HIV-1; details: week 48, with FTC/TDF or ABC/3TC; cited from earlier work
[9] = Biocompatibility study, subcutaneous implantation in mice; details: mouse, in vivo, sc
Method: To examine tissue responses and in vivo degradation of these implants, unloaded 20% DO implants (P4) were used and examined histological sections and polymer properties over a period of 8 months after subcutaneous implantation. Implants of ˜10 to 15 mg were implanted in the subdermal layer of 16 mice. […] implants were extracted every two months; half of the implants were used for histological examination while the other half were used to characterize the polymer using GPC and NMR (FIGS. 15A and 15B). […] This decrease in Mw (73%) during the first four months is slightly less than observed in vitro degradation, where there was an 84% decrease in Mw after four months of incubation in PBS buffer at 37° C. […] This trend can likely be attributed to the highly degradable PDO polymeric segments of the copolymer. In terms of structural integrity of the implants, the implants appeared intact at 8 months and were firm enough to be picked up by tweezers without damage to the implant.

C[C@@H]1C[C@H]2[C@@H]3CCC4=CC(=O)C=C[C@]4(C)[C@@]3(F)[C@@H](O)C[C@]2(C)[C@@]1(O)C(=O)CO [DEX, dexamethasone]
Diffusion Coefficient [1]: 3.7 × 10^−9 cm^2/sec | diffusion coefficient in porous EVAc implants ([2]; 35% DEX loading): 2.0×10^−10 cm^2/sec | diffusion coefficient in water ([2]; radiolabeled DEX in saline, 37° C.): 5.2×10^−6 cm^2/sec | log P [3]: 1.6-1.9

C[C@@H]1CCO[C@H]2Cn3cc(C(=O)NCc4ccc(F)cc4F)c(=O)c(O)c3C(=O)N12 [DTG, dolutegravir]
Diffusion Coefficient [1]: 1.7 × 10^−9 cm^2/sec | burst release rates compared to DEX ([1]; 28% loading, P4 implants): three-fold reduction in burst release rates | cumulative in vitro release compared to DEX from comparable implants ([1]; 28% loading, P4 implants): slower cumulative release

C#C[C@]1(CO)O[C@@H](n2cnc3c(N)nc(F)nc32)C[C@@H]1O [EFdA, 4′-Ethynyl-2-fluoro-2′-deoxyadenosine]
substrate for human mitochondrial DNA polymerase [4]: poor substrate | time of sustained levels of agent from implants [5]: up to 6 months | EC50 ([6]; Human immunodeficiency virus 1, read-out: effective concentrations (EC50)): 1.9 nM | IC90 / EC90 in HIV cell culture ([6]; calculated from EC50 with Hill slope of 1): 17.1 nM | increase in serum concentration ([7]; NPs, day 14-post infection): 21% | decline in serum concentration after day 21 ([7]; NPs, over the next three weeks): two-fold decline | clearance ([7]; NPs, single i.p. dose, co-administered): 1.2 mL/h/kg | concentration at 42 d ([7]; NPs, read-out: plasma level maintained at end of experiment): ≥ 4000 ng/mL | concentration at 42 d ([7]; NPs, read-out: plasma level maintained at end of experiment (molar)): ≥ 13 µM | concentration at 56 d ([7]; subcutaneous, implants, day 56, read-out: sustained plasma concentration at end of experiment): 7500 ng/mL | concentration at 56 d ([7]; subcutaneous, implants, day 56, read-out: sustained plasma concentration at end of experiment (molar)): 25 µM | AUC(0-t) ([7]; ip, NPs, single i.p. dose, co-administered): 6980 µg·h/mL | AUC(0-t) ([7]; subcutaneous, co-implanted poly(PDL-co-DO) implants, 56 d): 9130 µg·h/mL | serum level fold higher than the cellular EC50 ([7]; implants, day 14): 11,000 fold | fold decrease in serum concentration compared to day 28 ([7]; implants, day 35 post-implantation): 5 fold | plasma concentration fold above the EC90 ([7]; implants, day 56): ~1600 fold

Cn1c(Cn2ccc(C(F)(F)F)c(Oc3cc(Cl)cc(C#N)c3)c2=O)n[nH]c1=O [doravirine]
patients with plasma HIV-1 RNA of less than 50 copies/mL [8]: 84%

poly(ethylene brassylate-co-dioxanone) [poly(EB-co-DO) implants]
tolerability after subcutaneous implantation [9]: well tolerated
